Test results from paper PMC6540076 (Drug Design, Development and Therapy, 2019).
Marks after values point to notes of the source that are not given here.

Experiments:
[1] = system: tail-withdrawal latency; test: Tail-flick latency test; assay type: in vivo, rats; settings: for Latency (seconds) / Latency: compounds 5 mg/kg orally, naproxen 2.5 mg/kg orally, in DMSO, mean ± SE of six rats; for Potency (%): analgesic potency after 120 minutes compared with the reference drug naproxen
[2] = system: carrageenan-induced paw edema; test: Carrageenan-induced rat-paw-edema assay; assay type: in vivo, rats; settings: for Potency (%): calculated compared to the reference drug naproxen; for Edema (%): compounds 5 mg/kg orally, naproxen 2.5 mg/kg orally, in DMSO, mean ± SE of six rats
[3] = system: tumor-bearing rats; settings: cited from earlier work
[4] = system: gastric ulceration; settings: naproxen 2.5 mg/kg orally, tested compounds 5 mg/g orally in DMSO
[5] = after 1 hour of induced inflammation
[6] = throughout the entire experiment

SMILES | Latency (seconds) ([1]; 30 minutes) | Latency (seconds) ([1]; 60 minutes) | Latency (seconds) ([1]; 120 minutes) | Potency (%) [1] | Potency (%) ([2]; 1 hour) | Edema (%) ([2]; 1 hour) | Potency (%) ([2]; 2 hours) | Edema (%) ([2]; 2 hours) | Potency (%) ([2]; 3 hours) | Edema (%) ([2]; 3 hours) | Potency (%) ([2]; 4 hours) | Edema (%) ([2]; 4 hours) | anti-inflammatory activity (in words) [2, 5] | Latency ([1]; 30 minutes) | anti-inflammatory potency relative to the reference drug ([2]; compared to naproxen) | anti-inflammatory activity relative to naproxen ([2]; entire experiment, after 4 hours) | anti-inflammatory activity (in words) [2, 6] | anti-inflammatory potency (in words) ([2]; after 2, 3, and 4 hours of induced inflammation, compared to the reference drug) | reduction of rate of tumor growth [3] | ulcerogenic effect, macroscopic examination of the stomach [4]
COc1ccc2cc(C(C)C(=O)NC(=S)NC(C)C(=O)O)ccc2c1 (centres unmarked) [Compound 5, 2-(3-(2-(6-methoxynaphthalen-2-yl)propanoyl)thioureido)propanoic acid] | 3.9±0.3^b seconds | 3.9±0.4^b seconds | 3.9±0.2^b seconds | 55.7% | 102.5% | 21.2±1.66% | 64.6% | 30.4±1.19% | 71.1% | 33.7±1.68% | 71.7% | 32.8±1.40% | highest anti-inflammatory activity |  |  |  |  |  |  | 
COc1ccc2cc(C(C)C(=O)NC(=S)NCCC(=O)O)ccc2c1 (centres unmarked) [Compound 6, 3-(3-(2-(6-methoxynaphthalen-2-yl)propanoyl)thioureido)propanoic acid] |  | 4.0±0.2^b seconds | 4.2±0.3^b seconds | 60.0% | 67.6% | 24.6±2.39% | 60.0% | 31.4±2.46% | 64.4% | 35.1±2.99% | 60.3% | 35.3±3.06% | moderate potency | 4.6 ± 0.3 s |  |  |  |  |  | 
COc1ccc2cc(C(C)C(=O)NC(=S)NC(CO)C(=O)O)ccc2c1 (centres unmarked) [Compound 7, 3-hydroxy-2-(3-(2-(6-methoxynaphthalen-2-yl)propanoyl)thioureido)propanoic acid] | 3.9±0.4^b seconds | 3.6±0.3^b seconds | 4.1±0.2^b seconds | 58.6% | 73.9% | 24.0±1.90% | 73.3% | 28.4±0.78% | 89.8% | 29.7±0.95% | 85.2% | 30.0±0.95% | moderate potency |  |  |  |  |  |  | 
COc1ccc2cc(C(C)C(=O)NC(=S)NC(Cc3ccc(O)cc3)C(=O)O)ccc2c1 (centres unmarked) [Compound 8, 3-(4-hydroxyphenyl)-2-(3-(2-(6-methoxynaphthalen-2-yl)propanoyl)thioureido)propanoic acid] | 5.0±0.2^a seconds | 4.9±0.3^a,b seconds | 5.9±0.5^a seconds | 84.3% | 138.4% | 17.6±1.55% | 111.4% | 19.9±1.50% | 129.2% | 21.5±1.42% | 131.2% | 20.0±2.02% | highest anti-inflammatory activity |  | about 1.4 times | 1.3 times | highest anti-inflammatory activity |  |  | 
COC(=O)C(C)NC(=S)NC(=O)C(C)c1ccc2cc(OC)ccc2c1 (centres unmarked) [Compound 9, Methyl 2-(3-(2-(6-methoxynaphthalen-2-yl)propanoyl)thioureido)propanoate] | 3.7±0.2^b seconds | 3.8±0.3^b seconds | 4.0±0.3^b seconds | 57.1% | 4.7% | 30.8±1.09% | 11.6% | 42.2±3.50% | 21.1% | 44.2±3.94% | 32.3% | 41.3±2.99% |  |  |  |  |  |  |  | 
COC(=O)CCNC(=S)NC(=O)C(C)c1ccc2cc(OC)ccc2c1 (centres unmarked) [Compound 10, Methyl 3-(3-(2-(6-methoxynaphthalen-2-yl)propanoyl)thioureido)propanoate] | 3.1±0.3^b seconds | 4.6±0.4^b seconds | 5.7±0.2^a,b seconds | 81.4% | 6.3% | 30.7±2.38% | 9.8% | 42.6±2.45% | 10.4% | 46.4±2.61% | 15.9% | 44.9±3.34% |  |  |  |  |  |  |  | 
COC(=O)C(CO)NC(=S)NC(=O)C(C)c1ccc2cc(OC)ccc2c1 (centres unmarked) [Compound 11, Methyl 3-hydroxy-2-(3-(2-(6-methoxynaphthalen-2-yl)propanoyl)thioureido)propanoate] | 4.8±0.5^a seconds | 4.8±0.4^b seconds | 4.8±0.2^a,b seconds | 68.6% | 66.7% | 24.7±1.79% | 62.2% | 30.9±2.05% | 32.5% | 41.8±2.81% | 32.1% | 41.4±2.59% | moderate potency |  |  |  |  |  |  | 
COc1ccc2cc(C(C)C(=O)NC(=S)NCCC(=O)NN)ccc2c1 (centres unmarked) [Compound 14, N-(3-hydrazinyl-3-oxopropylcarbamothioyl)-2-(6-methoxynaphthalen-2-yl)propanamide] | 6.1±0.4^a seconds | 5.6±0.2^a seconds | 5.7±0.3^a,b seconds | 81.4% | 40.3% | 27.3±0.88% | 32.9% | 37.4±3.58% | 44.9% | 39.2±2.42% | 26.5% | 42.6±1.61% |  | 6.1 ± 0.4 s |  |  | lowest anti-inflammatory potency |  |  | 
COc1ccc2cc(C(C)C(=O)NC(=S)NC(CO)C(=O)NN)ccc2c1 (centres unmarked) [Compound 15, N-(1-hydrazinyl-3-hydroxy–1-oxopropan-2-yl-carbamothioyl)-2-(6-methoxynaphthalen-2-yl)propanamide] |  | 3.9±0.2^b seconds | 4.5±0.3^b seconds | 64.3% | 120.0% | 19.5±0.50% | 96.8% | 23.2±2.05% | 88.2% | 30.1±2.58% | 80.5% | 31.0±1.68% | highest anti-inflammatory activity | 4.2 ± 0.4 s |  |  |  | moderate potency |  | 
COc1ccc2cc([C@H](C)C(=O)O)ccc2c1 [Naproxen, reference compound] | 5.3±0.3^a seconds | 6.2±0.4^a seconds | 7.0±0.4^a seconds | 100% | 100% | 21.5±2.03% | 100% | 22.5±1.22% | 100% | 27.6±0.85% | 100% | 26.7±1.90% |  |  |  |  |  |  | 58% | moderate gastric ulceration
